Data taken from patent publication US20240317801A1, “PEPTIDOMIMETIC MATRIPTASE 2 INHIBITORS AND USES THEREOF” (Disc Medicine, Inc., priority 2020, published 2024).

molecular target: T1, Human Recombinant Matriptase 2 (Homo sapiens, UniProt Q8IU80); assay: Matriptase 2 fluorescence-based inhibition assay (Boc-Gln-Ala-Arg-AMC substrate); type: biochemical; details: Ki derived from measured IC50 using Cheng-Prusoff equation; 30 min preincubation, 100 μM substrate, 25° C., pH 7.5; read-out: Mat-2 Ki
T1 construct: purchased Enzo Life Sciences ALX-201-752-1
T1 sequence (Q8IU80 1-811): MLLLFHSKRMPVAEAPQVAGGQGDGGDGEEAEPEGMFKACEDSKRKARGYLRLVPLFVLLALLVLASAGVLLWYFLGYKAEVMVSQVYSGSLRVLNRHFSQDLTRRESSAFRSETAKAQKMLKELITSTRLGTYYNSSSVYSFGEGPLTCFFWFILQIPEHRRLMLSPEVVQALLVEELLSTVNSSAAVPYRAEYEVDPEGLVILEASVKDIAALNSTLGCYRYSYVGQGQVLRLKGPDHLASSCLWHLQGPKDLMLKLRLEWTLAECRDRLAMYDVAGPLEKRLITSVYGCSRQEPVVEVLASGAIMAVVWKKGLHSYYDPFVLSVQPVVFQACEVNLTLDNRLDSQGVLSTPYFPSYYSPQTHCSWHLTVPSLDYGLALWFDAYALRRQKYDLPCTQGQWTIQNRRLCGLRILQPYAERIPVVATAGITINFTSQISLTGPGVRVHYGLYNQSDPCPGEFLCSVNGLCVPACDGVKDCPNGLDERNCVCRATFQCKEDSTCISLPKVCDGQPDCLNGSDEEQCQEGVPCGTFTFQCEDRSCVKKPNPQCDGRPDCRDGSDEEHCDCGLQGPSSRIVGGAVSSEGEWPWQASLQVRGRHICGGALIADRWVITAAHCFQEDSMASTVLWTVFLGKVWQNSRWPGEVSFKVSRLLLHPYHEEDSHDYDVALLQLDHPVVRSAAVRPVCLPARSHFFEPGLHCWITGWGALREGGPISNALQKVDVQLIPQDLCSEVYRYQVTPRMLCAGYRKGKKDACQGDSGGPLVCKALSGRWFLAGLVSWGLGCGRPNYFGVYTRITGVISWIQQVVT
Method: Test compounds were evaluated for their potential to inhibit Human Recombinant Matriptase 2 (in-house and commercial protein from Enzo Life Sciences—cat log—ALX-201-752-1) using fluorescence-based assay. The concentration of Recombinant Matriptase 2 and the substrate used in the assay were: 7 nM (commercial) and 15 nM (In-house Matriptase 2) and 100 μM (Boc-Gln-Ala-Arg-7-amido-4-methyl coumarin hydrobromide—Cat log: B4153-Sigma and I-1550 from Bachem) respectively. The assay buffer used comprised 50 mM TRIS pH 7.5, 150 mM NaCl, 0.01% gelatin (G1393 Sigma). The assay was performed by using 384 well black flat bottom plate from Grenier (Cat log: 781076) at 25° C. The enzyme and the test compound were preincubated for 30 mins, and the plate was read at wavelength Ex: 360/Em:480 nm60 mins after substrate addition. The final assay volume of was 20 μl. Stock solution of compounds were initially prepared in DMSO, which were appropriately diluted for screening to determine IC50 determination (final DMSO conc in the assay was 1%). All the measurements were carried out using the Spectramax M5, Molecular devices. The test compounds were screened at 1 and 10 μM concentrations and IC50 was determined for the interested compounds.
Ki is the binding affinity of an inhibitor. Mat-2 Ki as described herein is the binding affinity of an inhibitor such as a compound as described and provided herein to Mat-2. Mat-2 Ki values are derived from the measured IC50. To determine IC50 values, dose-response curves were generated by plotting percentage inhibition as a function of inhibitor concentration and the data was fitted to a sigmoidal non-linear regression equation (variable slope) using Graph Pad Prism software V7. Mat-2 Ki values as described herein were derived from the IC50 using the Cheng-Prusoff equation, which is understood and appreciated by one the skill in the art. The Mat-2 Ki values of tested compounds as described herein are shown in Table A. Accordingly, the compounds can be used to inhibit matriptase 2 and treat diseases and conditions associated with matriptase 2, such as those described herein.

SMILES	Ki [nM]
C[C@@H](O)[C@H](NC(=O)[C@H](CCc1ccccc1)NC(=O)CCc1ccccc1)C(=O)N[C@@H](CC1CCN(C(=N)N)CC1)C(=O)C(=O)NC1CC1 [(3S)-4-(1-carbamimidoylpiperidin-4-yl)-N-cyclopropyl-2-oxidanylidene-3-[[(2S,3R)-3-oxidanyl-2-[[(2S)-4-phenyl-2-(3-phenylpropanoylamino)butanoyl]amino]butanoyl]amino]butanamide]	100 to 1000
C[C@@H](O)[C@H](NC(=O)[C@H](CCc1ccccc1)NC(=O)CCc1ccccc1)C(=O)N[C@@H](CCCNC(=N)N)C(=O)C(=O)NC1(C)CC1 [(S)-6-guanidino-3-((2S,3R)-3-hydroxy-2-((S)-4-phenyl-2-(3-phenylpropanamido)butanamido)butanamido)-N-(1-methylcyclopropyl)-2-oxohexanamide]	≤ 100
C[C@@H](O)[C@H](NC(=O)[C@H](CCc1ccccc1)NC(=O)CCc1ccccc1)C(=O)N[C@@H](CCCNC(=N)N)C(=O)C(=O)NC1CC1 [(S)—N-cyclopropyl-6-guanidino-3-((2S,3R)-3-hydroxy-2-((S)-4-phenyl-2-(3-phenylpropanamido)butanamido)butanamido)-2-oxohexanamide]	≤ 100
